Results: ChEMBL document CHEMBL1201862, “PubChem BioAssay data set” (2004)
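Results reflect a 48-hour exposure of cells in 96-well plates to compound at five concentrations. Abbreviation: GI50, concentration required for 50% inhibition of growth.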 Calls of active or inactive are those of the source. Rule as the data show it: active = GI50 up to about 1.1 µM and inactive = higher.

Experiments:
Test in all cases: DTP human tumour cell line panel, 48 h
[1] = system: HOP-92
[2] = system: NCI/ADR-RES
[3] = system: SW-620
[4] = system: MDA-MB-231
[5] = system: NCI-H522
[6] = system: M14
[7] = system: SF-268
[8] = system: T47D
[9] = system: SN12C
[10] = system: MDA-MB-435
[11] = system: OVCAR-5
[12] = system: HL-60
[13] = system: EKVX
[14] = system: LOX IMVI
[15] = system: NCI-H460
[16] = system: SK-MEL-5
[17] = system: SK-OV-3
[18] = system: KM12
[19] = system: UO-31
[20] = system: PC-3
[21] = system: HCT-116
[22] = system: MDA-N
[23] = system: TK-10
[24] = system: BT-549
[25] = system: OVCAR-3
[26] = system: NCI-H23
[27] = system: Hs-578T
[28] = system: MOLT-4
[29] = system: RXF 393
[30] = system: OVCAR-4
[31] = system: NCI-H226
[32] = system: HCC 2998
[33] = system: HOP-62
[34] = system: A549
[35] = system: OVCAR-8
[36] = system: Malme-3M
[37] = system: SF-539
[38] = system: U-251
[39] = system: HT-29
[40] = system: SNB-75
[41] = system: CCRF-CEM
[42] = system: 786-0
[43] = system: IGROV-1
[44] = system: SK-MEL-2
[45] = system: SF-295
[46] = system: HCT-15
[47] = system: MCF7
[48] = system: UACC-257
[49] = system: ACHN
[50] = system: SNB-19
[51] = system: SR
[52] = system: DU-145
[53] = system: COLO 205
[54] = system: UACC-62
[55] = system: SK-MEL-28
[56] = system: K562
[57] = system: CAKI-1
[58] = system: RPMI-8226
[59] = system: A498

O=C1c2ccccc2C2C1C(c1ccccc1)C1(Cc3ccccc3C1=O)C2c1ccccc1 (stereo not given)
GI50 [1]: > 100 µM (inactive) | GI50 [2]: > 100 µM (inactive) | GI50 [3]: > 100 µM (inactive) | GI50 [4]: 4.72 µM (inactive) | GI50 [5]: 20.5 µM (inactive) | GI50 [6]: > 100 µM (inactive) | GI50 [7]: > 100 µM (inactive) | GI50 [8]: 11.4 µM (inactive) | GI50 [9]: > 100 µM (inactive) | GI50 [10]: > 73.6 µM (inactive) | GI50 [11]: > 100 µM (inactive) | GI50 [12]: 3.67 µM (inactive) | GI50 [13]: > 100 µM (inactive) | GI50 [14]: 21.6 µM (inactive) | GI50 [15]: > 67 µM (inactive) | GI50 [16]: > 55.8 µM (inactive) | GI50 [17]: > 100 µM (inactive) | GI50 [18]: > 100 µM (inactive) | GI50 [19]: > 29.8 µM (inactive) | GI50 [20]: 12.5 µM (inactive) | GI50 [21]: 2.2 µM (inactive) | GI50 [22]: 4.28 µM (inactive) | GI50 [23]: > 100 µM (inactive) | GI50 [24]: > 100 µM (inactive) | GI50 [25]: > 100 µM (inactive) | GI50 [26]: > 100 µM (inactive) | GI50 [27]: > 100 µM (inactive) | GI50 [28]: 3.58 µM (inactive) | GI50 [29]: > 100 µM (inactive) | GI50 [30]: > 100 µM (inactive) | GI50 [31]: > 100 µM (inactive) | GI50 [32]: > 46.8 µM (inactive) | GI50 [33]: > 100 µM (inactive) | GI50 [34]: > 100 µM (inactive) | GI50 [35]: > 100 µM (inactive) | GI50 [36]: > 100 µM (inactive) | GI50 [37]: > 100 µM (inactive) | GI50 [38]: > 100 µM (inactive) | GI50 [39]: 14.8 µM (inactive) | GI50 [40]: 30.4 µM (inactive) | GI50 [41]: 4.85 µM (inactive) | GI50 [42]: > 100 µM (inactive) | GI50 [43]: 11.7 µM (inactive) | GI50 [44]: > 100 µM (inactive) | GI50 [45]: > 29.6 µM (inactive) | GI50 [46]: > 100 µM | GI50 [47]: > 31.7 µM (inactive) | GI50 [48]: > 100 µM (inactive) | GI50 [49]: > 100 µM (inactive) | GI50 [50]: > 100 µM (inactive) | GI50 [51]: 7.57 µM (inactive) | GI50 [52]: > 100 µM (inactive) | GI50 [53]: > 100 µM (inactive) | GI50 [54]: 10.1 µM (inactive) | GI50 [55]: > 100 µM (inactive) | GI50 [56]: 5.53 µM (inactive)

O=c1onc2n1-c1ccc(Cl)cc1C(=S)N1CSCC21 (stereo not given)
GI50 [2]: 17.3 µM (inactive) | GI50 [3]: 20.7 µM (inactive) | GI50 [4]: 19.5 µM (inactive) | GI50 [5]: 21.9 µM (inactive) | GI50 [6]: 11.1 µM (inactive) | GI50 [7]: 25.8 µM (inactive) | GI50 [8]: 35.7 µM (inactive) | GI50 [9]: 29.6 µM (inactive) | GI50 [10]: 9.46 µM (inactive) | GI50 [11]: 31.3 µM (inactive) | GI50 [13]: 29.6 µM (inactive) | GI50 [14]: 31.5 µM (inactive) | GI50 [15]: 20.9 µM (inactive) | GI50 [57]: 64.1 µM (inactive) | GI50 [16]: 19.7 µM (inactive) | GI50 [17]: 19.4 µM (inactive) | GI50 [58]: 31.3 µM (inactive) | GI50 [18]: 29.4 µM (inactive) | GI50 [19]: 59 µM (inactive) | GI50 [20]: 31.4 µM (inactive) | GI50 [21]: 13.7 µM (inactive) | GI50 [22]: 8.71 µM (inactive) | GI50 [23]: 70.5 µM (inactive) | GI50 [24]: 20.5 µM (inactive) | GI50 [25]: 38.8 µM (inactive) | GI50 [27]: 22.2 µM (inactive) | GI50 [28]: 30.1 µM (inactive) | GI50 [29]: 33.6 µM (inactive) | GI50 [30]: 59.2 µM (inactive) | GI50 [31]: 28.1 µM (inactive) | GI50 [32]: 19.5 µM (inactive) | GI50 [33]: 63.1 µM (inactive) | GI50 [34]: 34.8 µM (inactive) | GI50 [59]: 23.1 µM (inactive) | GI50 [35]: 18.1 µM (inactive) | GI50 [36]: 47.3 µM (inactive) | GI50 [38]: 18.2 µM (inactive) | GI50 [39]: 24.5 µM (inactive) | GI50 [40]: 30.4 µM (inactive) | GI50 [41]: 25.9 µM (inactive) | GI50 [42]: 23.1 µM (inactive) | GI50 [43]: 26.5 µM (inactive) | GI50 [44]: 25.1 µM (inactive) | GI50 [45]: 17.5 µM (inactive) | GI50 [46]: 26.6 µM | GI50 [47]: 28.4 µM (inactive) | GI50 [48]: > 100 µM (inactive) | GI50 [49]: 66.8 µM (inactive) | GI50 [50]: 22.3 µM (inactive) | GI50 [51]: 15.9 µM (inactive) | GI50 [52]: 34.2 µM (inactive) | GI50 [53]: 18.4 µM (inactive) | GI50 [54]: 67.8 µM (inactive) | GI50 [55]: 52.5 µM (inactive) | GI50 [56]: 25.4 µM (inactive)

COC(=O)[C@H](Cc1ccccc1)NC(=O)NCCN(CCNC(=O)N[C@@H](Cc1ccccc1)C(=O)OC)C(=O)N[C@@H](Cc1ccccc1)C(=O)OC
GI50 [1]: 35.4 µM (inactive) | GI50 [2]: > 100 µM (inactive) | GI50 [3]: 22.8 µM (inactive) | GI50 [4]: 23.7 µM (inactive) | GI50 [5]: 15.7 µM (inactive) | GI50 [6]: 25.6 µM (inactive) | GI50 [7]: 17 µM (inactive) | GI50 [8]: 22.6 µM (inactive) | GI50 [9]: > 10 µM (inactive) | GI50 [10]: 22.3 µM (inactive) | GI50 [11]: 20.4 µM (inactive) | GI50 [13]: 30.6 µM (inactive) | GI50 [14]: 38.4 µM (inactive) | GI50 [15]: 18.8 µM (inactive) | GI50 [57]: > 45.8 µM (inactive) | GI50 [16]: 20.7 µM (inactive) | GI50 [17]: 31.9 µM (inactive) | GI50 [58]: 25.3 µM (inactive) | GI50 [18]: 20.9 µM (inactive) | GI50 [19]: 24.3 µM (inactive) | GI50 [20]: 22.3 µM (inactive) | GI50 [21]: 20.3 µM (inactive) | GI50 [22]: 18.2 µM (inactive) | GI50 [23]: 20.1 µM (inactive) | GI50 [24]: 18.9 µM (inactive) | GI50 [25]: 19.5 µM (inactive) | GI50 [26]: 18.9 µM (inactive) | GI50 [27]: 23.8 µM (inactive) | GI50 [28]: 20.2 µM (inactive) | GI50 [29]: 16.9 µM (inactive) | GI50 [30]: 15.2 µM (inactive) | GI50 [31]: 18.2 µM (inactive) | GI50 [32]: 20.3 µM (inactive) | GI50 [33]: 20.7 µM (inactive) | GI50 [34]: 29 µM (inactive) | GI50 [59]: 32.9 µM (inactive) | GI50 [35]: 18.3 µM (inactive) | GI50 [36]: 22 µM (inactive) | GI50 [37]: 18.8 µM (inactive) | GI50 [38]: 21.8 µM (inactive) | GI50 [40]: 20.7 µM (inactive) | GI50 [42]: 19.5 µM (inactive) | GI50 [44]: 21.8 µM (inactive) | GI50 [45]: 18.9 µM (inactive) | GI50 [46]: > 50.1 µM | GI50 [47]: 26 µM (inactive) | GI50 [48]: 20.7 µM (inactive) | GI50 [49]: 24.5 µM (inactive) | GI50 [50]: 24.7 µM (inactive) | GI50 [52]: 21.1 µM (inactive) | GI50 [53]: 21.9 µM (inactive) | GI50 [54]: 25.5 µM (inactive) | GI50 [55]: 19.4 µM (inactive) | GI50 [56]: 22.3 µM (inactive)
